Measurements reported in US20130297040A1, “IMPLANT HAVING A CORE AND A TUBE ENCASING THE CORE” (UNIVERSITE DE LIEGE, priority 2011, published 2013).
Values belong to the compound of their own block, whether it stands above or below them.

Experiment: Pharmacokinetic study of celecoxib implants in Wistar rats

metabolism of celecoxib (after implantation of celecoxib implant): metabolized in rats
SMILES: Cc1ccc(-c2cc(C(F)(F)F)nn2-c2ccc(S(N)(=O)=O)cc2)cc1 [celecoxib, reference compound]

concentration of HO-celecoxib in peritoneal liquid, intraperitoneal vs subcutaneous implant (peritoneal liquid): tendency to a higher concentration | concentration of HO-celecoxib in serum, intraperitoneal vs subcutaneous implant (serum): No differences
SMILES: NS(=O)(=O)c1ccc(-n2nc(C(F)(F)F)cc2-c2ccc(CO)cc2)cc1 [HO-celecoxib]
presence of the metabolite HO-celecoxib after implantation (celecoxib implant): present in the rats during more than two years

concentration of HOOC-celecoxib in the serum and in the PF, intraperitoneal vs subcutaneous implant (serum and peritoneal liquid): No differences
SMILES: NS(=O)(=O)c1ccc(-n2nc(C(F)(F)F)cc2-c2ccc(C(=O)O)cc2)cc1 [HOOC-celecoxib]
presence of the metabolite HOOC-celecoxib after implantation (celecoxib implant): present in the rats during more than two years
